According to paper PMC2009770, “Thiophene analogues of the carcinogens benzidine and 4-aminobiphenyl: evaluation in vitro” (British Journal of Cancer, 1978):

Legend:
[1] = design: method as in Laham & Sinclair, 1969; settings: rats; ref Laham & Sinclair, 1969; cited from earlier work
[2] = tested on: Salmonella strains TA 1535, TA 1538, TA 98 and TA 100; assay: Salmonella reverse-mutation assay of Ames; settings: for response in the Ames assay (Fig. 1): strain TA 1538, presence of Aroclor 1254-induced rat liver S-9 mix
BHK 21/C13 cells [3] = assay: cell-transformation assay of Styles; settings: presence of S-9 mix, 2 separate occasions (Fig. 2)
[4] = ref Ashby & Cook, 1974; cited from earlier work
[5] = chemical stability to heat, light and air (monitored by TLC and m.p.); format: physicochemical; settings: for stability to heat and light: monitored by TLC and m.p.; for behaviour of the solid in air and light: noted at preparation
BHK 21/C13 cells [6] = assay: parallel cell-toxicity assay (% survivors) of the transformation assay; format: cell-based

SMILES: Nc1ccc(-c2ccc(N)cc2)cc1 [XI, benzidine]
- bladder cancer induction [1]: induces bladder cancer
- response in the Ames assay ([2]; 4 Salmonella strains, 3 separate occasions, presence and absence of Aroclor 1254-induced rat liver S-9 mix): positive on each occasion
- response in the Ames assay (Fig. 1) [2]: positive response
- response in the cell-transformation assay (BHK 21/C13 cells [3]): positive

SMILES: Nc1ccc(-c2ccc([N+](=O)[O-])cc2)cc1 [4-nitro-4'-aminobiphenyl]
- bladder cancer induction [1]: induces bladder cancer

SMILES: Nc1ccc2c(c1)sc1ccccc12 [VII, 3-amino-dibenzothiophene]
- carcinogenicity [4]: carcinogenicity

SMILES: CC(=O)Nc1ccc(-c2ccc(N)s2)cc1.Cl [XIII, 5-p-acetamidophenyl-2-thiophenamine hydrochloride]
- stability to heat and light [5]: unstable to heat and light
- behaviour of the solid in air and light [5]: sensitive to light and air

SMILES: Cl.Nc1ccc(-c2ccccc2)s1 [XIV, 5-phenyl-2-thiophenamine hydrochloride]
- stability to heat and light [5]: unstable to heat and light
- behaviour of the solid in air and light [5]: discolours quickly in air and light

SMILES: CC(=O)Nc1ccc(-c2ccccc2)s1 [XVI, N-(5-phenylthiophen-2-yl)-acetamide]
- stability to heat and light [5]: stable
- cytotoxicity (toxicity curve, % survivors) (BHK 21/C13 cells [6]): toxicity curve similar to that of benzidine

SMILES: CC(=O)Nc1ccc(-c2ccc(NC(C)=O)s2)cc1 [XV, N-(5-p-acetamido-phenylthiophen-2-yl)acetamide]
- stability to heat and light [5]: stable
- response in the Ames assay (Fig. 1) [2]: positive response
- cytotoxicity (toxicity curve, % survivors) (BHK 21/C13 cells [6]): toxicity curve similar to that of benzidine
